Results taken from US7585874B2, “Aryl-isoxazol-4-yl-imidazo[1,2-a]pyridine derivatives” (Hoffmann-La Roche Inc., priority 2006, dated 2009).

The compounds below were run against T1, GABA A receptor α5β3γ2 (Homo sapiens, UniProt P18507+P31644) (assay: [3H]flumazenil competition binding, membranes of HEK293 cells expressing human GABA A α5β3γ2). Conditions: human α5β3γ2 in HEK293 (transiently transfected); 0.5 nM [3H]flumazenil; 1 hour at 4° C.; means of two determinations; read-out: Ki[nM]hα5.
T1 construct: expressed in transfected cells; host or cells: HEK293 (transiently transfected; membranes)
Experimental: The affinity of compounds at GABA A receptor subtypes was measured by competition for [3H]flumazenil (85 Ci/mmol; Roche) binding to HEK293 cells expressing rat (stably transfected) or human (transiently transfected) receptors of composition α1β3γ2, α2β3γ2, α3β3γ2 and α5β3γ2.
Cell pellets were suspended in Krebs-tris buffer (4.8 mM KCl, 1.2 mM CaCl2, 1.2 mM MgCl2, 120 mM NaCl, 15 mM Tris; pH 7.5; binding assay buffer), homogenized by polytron for ca. 20 sec on ice and centrifuged for 60 min at 4° C. (50000 g; Sorvall, rotor: SM24=20000 rpm). The cell pellets were resuspended in Krebs-tris buffer and homogenized by polytron for ca. 15 sec on ice. Protein was measured (Bradford method, Bio-Rad) and aliquots of 1 mL were prepared and stored at −80° C.
Radioligand binding assays were carried out in a volume of […] (96-well plates) which contained […] of cell membranes, [3H]flumazenil at a concentration of 1 nM for α1, α2, α3 subunits and 0.5 nM for α5 subunits and the test compound in the range of […]. Nonspecific binding was defined by 10^−5 M diazepam and typically represented less than 5% of the total binding. Assays were incubated to equilibrium for 1 hour at 4° C. and harvested onto GF/C uni-filters (Packard) by filtration using a Packard harvester and washing with ice-cold wash buffer 50 mM Tris; pH 7.5). After drying, filter-retained radioactivity was detected by liquid scintillation counting. Ki values were calculated using Excel-Fit (Microsoft) and are the means of two determinations.

Compound	Ki
Cc1onc(-c2ccccc2)c1-c1cn2cc(N)ccc2n1 [Example 54, 2-(5-Methyl-3-phenyl-isoxazol-4-yl)-imidazo[1,2-a]pyridin-6-ylamine]	88.1 nM
Cc1onc(-c2ccccc2)c1-c1cn2cc(-n3ccnc3)ccc2n1 [Example 66, 6-Imidazol-1-yl-2-(5-methyl-3-phenyl-isoxazol-4-yl)-imidazo[1,2-a]pyridine]	57.4 nM
Cc1onc(-c2ccccc2)c1-c1cn2cccc(C)c2n1 [Example 2, 8-Methyl-2-(5-methyl-3-phenyl-isoxazol-4-yl)-imidazo[1,2-a]pyridine]	232 nM
Cc1onc(-c2ccccc2)c1-c1cn2ccc(C(=O)NCCCN3CCOCC3)cc2n1 [Example 19, 2-(5-Methyl-3-phenyl-isoxazol-4-yl)-imidazo[1,2-a]pyridine-7-carboxylic acid (3-morpholin-4-yl-propyl)-amide]	124 nM
Cc1onc(-c2ccccc2)c1-c1cn2cc(C(=O)NC3CCOCC3)ccc2n1 [Example 37, 2-(5-Methyl-3-phenyl-isoxazol-4-yl)-imidazo[1,2-a]pyridine-6-carboxylic acid (tetrahydro-pyran-4-yl)-amide]	6.8 nM
2-(5-Methyl-3-phenyl-isoxazol-4-yl)-imidazo[1,2-a]pyridine-6-carboxylic acid (3-morpholin-4-yl-propyl)-amide [Example 39]	190 nM
Cc1onc(-c2ccccc2)c1-c1cn2cc(C(=O)NC3CCCC3)ccc2n1 [Example 35, 2-(5-Methyl-3-phenyl-isoxazol-4-yl)-imidazo[1,2-a]pyridine-6-carboxylic acid cyclopentylamide]	15.8 nM
Cc1onc(-c2ccccc2)c1-c1cn2cc(NC(=O)c3cccnc3)ccc2n1 [Example 61, N-[2-(5-Methyl-3-phenyl-isoxazol-4-yl)-imidazo[1,2-a]pyridin-6-yl]-nicotinamide]	9.4 nM
Cc1onc(-c2ccccc2)c1-c1cn2cc(Cl)ccc2n1 [Example 26, 6-Chloro-2-(5-methyl-3-phenyl-isoxazol-4-yl)-imidazo[1,2-a]pyridine]	110 nM
Cc1onc(-c2ccccc2)c1-c1cn2cc(NC(=O)c3ccccc3)ccc2n1 [Example 60, N-[2-(5-Methyl-3-phenyl-isoxazol-4-yl)-imidazo[1,2-a]pyridin-6-yl]-benzamide]	30.7 nM
Cc1onc(-c2ccccc2)c1-c1cn2cc(C(=O)NCC3CC3)ccc2n1 [Example 31, 2-(5-Methyl-3-phenyl-isoxazol-4-yl)-imidazo[1,2-a]pyridine-6-carboxylic acid cyclopropylmethyl-amide]	23.9 nM
Cc1onc(-c2ccccc2)c1-c1cn2ccc(C(=O)NC3CC3)cc2n1 [Example 13, 2-(5-Methyl-3-phenyl-isoxazol-4-yl)-imidazo[1,2-a]pyridine-7-carboxylic acid cyclopropylamide]	87.4 nM
Cc1onc(-c2ccccc2)c1-c1cn2cc(NC(=O)C3CCC3)ccc2n1 [Example 58, Cyclobutanecarboxylic acid [2-(5-methyl-3-phenyl-isoxazol-4-yl)-imidazo[1,2-a]pyridin-6-yl]-amide]	28.2 nM
Cc1onc(-c2ccccc2)c1-c1cn2ccc(C(=O)NC3CCCC3)cc2n1 [Example 15, 2-(5-Methyl-3-phenyl-isoxazol-4-yl)-imidazo[1,2-a]pyridine-7-carboxylic acid cyclopentylamide]	200 nM
Cc1onc(-c2ccccc2)c1-c1cn2ccc(NC(=O)Cc3cccnc3)cc2n1 [Example 47, N-[2-(5-Methyl-3-phenyl-isoxazol-4-yl)-imidazo[1,2-a]pyridin-7-yl]-2-pyridin-3-yl-acetamide]	50.7 nM
Cc1onc(-c2ccccc2)c1-c1cn2cc(Br)ccc2n1 [Example 27, 6-Bromo-2-(5-methyl-3-phenyl-isoxazol-4-yl)-imidazo[1,2-a]pyridine]	121 nM
Cc1onc(-c2ccccc2)c1-c1cn2ccc(C(=O)NC3CCC3)cc2n1 [Example 14, 2-(5-Methyl-3-phenyl-isoxazol-4-yl)-imidazo[1,2-a]pyridine-7-carboxylic acid cyclobutylamide]	168 nM
Cc1onc(-c2ccccc2)c1-c1cn2cccc(Br)c2n1 [Example 4, 8-Bromo-2-(5-methyl-3-phenyl-isoxazol-4-yl)-imidazo[1,2-a]pyridine]	146 nM
Cc1onc(-c2ccccc2)c1-c1cn2cc(NC(=O)Cc3cccnc3)ccc2n1 [Example 56, N-[2-(5-Methyl-3-phenyl-isoxazol-4-yl)-imidazo[1,2-a]pyridin-6-yl]-2-pyridin-3-yl-acetamide]	54.3 nM

Results, then the compound that gave them:

Ki	Compound
178 nM	Cc1onc(-c2ccccc2)c1-c1cn2ccc(C(=O)NCC3CC3)cc2n1 [Example 11, 2-(5-Methyl-3-phenyl-isoxazol-4-yl)-imidazo[1,2-a]pyridine-7-carboxylic acid cyclopropylmethyl-amide]
23.6 nM	Cc1onc(-c2ccccc2)c1-c1cn2cc(C(=O)NC3CC3)ccc2n1 [Example 33, 2-(5-Methyl-3-phenyl-isoxazol-4-yl)-imidazo[1,2-a]pyridine-6-carboxylic acid cyclopropylamide]
97 nM	Cc1onc(-c2ccccc2)c1-c1cn2ccc(C(=O)NCc3cccnc3)cc2n1 [Example 21, 2-(5-Methyl-3-phenyl-isoxazol-4-yl)-imidazo[1,2-a]pyridine-7-carboxylic acid (pyridin-3-ylmethyl)-amide]
7.13 nM	Brc1ccc2nc(-c3c(-c4ccccc4)noc3C3CC3)cn2c1 [Example 69, 6-Bromo-2-(5-cyclopropyl-3-phenyl-isoxazol-4-yl)-imidazo[1,2-a]pyridine]
59.8 nM	Cc1onc(-c2ccccc2)c1-c1cn2cc(C(=O)NCCO)ccc2n1 [Example 36, 2-(5-Methyl-3-phenyl-isoxazol-4-yl)-imidazo[1,2-a]pyridine-6-carboxylic acid (2-hydroxy-ethyl)-amide]
20.8 nM	Cc1onc(-c2ccccc2)c1-c1cn2cc(NC(=O)C3CC3)ccc2n1 [Example 57, Cyclopropanecarboxylic acid [2-(5-methyl-3-phenyl-isoxazol-4-yl)-imidazo[1,2-a]pyridin-6-yl]-amide]
76.2 nM	Cc1onc(-c2ccccc2)c1-c1cn2ccc(NC(=O)c3cccnc3)cc2n1 [Example 51, N-[2-(5-Methyl-3-phenyl-isoxazol-4-yl)-imidazo[1,2-a]pyridin-7-yl]-nicotinamide]
80.5 nM	Cc1onc(-c2ccccc2)c1-c1cn2ccc(NC(=O)C3CCC3)cc2n1 [Example 49, Cyclobutanecarboxylic acid [2-(5-methyl-3-phenyl-isoxazol-4-yl)-imidazo[1,2-a]pyridin-7-yl]-amide]
41.1 nM	Cc1onc(-c2ccccc2)c1-c1cn2cc(-n3cccn3)ccc2n1 [Example 65, 2-(5-Methyl-3-phenyl-isoxazol-4-yl)-6-pyrazol-1-yl-imidazo[1,2-a]pyridine]
101 nM	CCc1ccn2cc(-c3c(-c4ccccc4)noc3C)nc2c1 [Example 9, 7-Ethyl-2-(5-methyl-3-phenyl-isoxazol-4-yl)-imidazo[1,2-a]pyridine]
13.4 nM	Cc1onc(-c2ccccc2)c1-c1cn2c(-n3ccnc3)cccc2n1 [Example 67, 5-Imidazol-1-yl-2-(5-methyl-3-phenyl-isoxazol-4-yl)-imidazo[1,2-a]pyridine]
23 nM	Cc1onc(-c2ccccc2)c1-c1cn2cccc(OCc3ccccc3)c2n1 [Example 6, 8-Benzyloxy-2-(5-methyl-3-phenyl-isoxazol-4-yl)-imidazo[1,2-a]pyridine]
159 nM	Cc1onc(-c2ccccc2)c1-c1cn2ccc(C(=O)NCCN3CCOCC3)cc2n1 [Example 18, 2-(5-Methyl-3-phenyl-isoxazol-4-yl)-imidazo[1,2-a]pyridine-7-carboxylic acid (2-morpholin-4-yl-ethyl)-amide]
154 nM	Cc1onc(-c2ccccc2)c1-c1cn2cc(F)ccc2n1 [Example 25, 6-Fluoro-2-(5-methyl-3-phenyl-isoxazol-4-yl)-imidazo[1,2-a]pyridine]
27 nM	Cc1onc(-c2ccccc2)c1-c1cn2cc(N3CCC3=O)ccc2n1 [Example 62, 1-[2-(5-Methyl-3-phenyl-isoxazol-4-yl)-imidazo[1,2-a]pyridin-6-yl]-azetidin-2-one]
38.4 nM	Cc1onc(-c2ccccc2)c1-c1cn2cc(NC(=O)CC3CC3)ccc2n1 [Example 55, 2-Cyclopropyl-N-[2-(5-methyl-3-phenyl-isoxazol-4-yl)-imidazo[1,2-a]pyridin-6-yl]-acetamide]
150 nM	COC(=O)c1ccn2cc(-c3c(-c4ccccc4)noc3C)nc2c1 [Example 10, 2-(5-Methyl-3-phenyl-isoxazol-4-yl)-imidazo[1,2-a]pyridine-7-carboxylic acid methyl ester]
164 nM	C#Cc1ccc2nc(-c3c(-c4ccccc4)noc3C)cn2c1 [Example 53, 6-Ethynyl-2-(5-methyl-3-phenyl-isoxazol-4-yl)-imidazo[1,2-a]pyridine]
